Earlier results in patent US12390475B2, “Dry powder treprostinil for the treatment of pulmonary hypertension” (priority 2016, dated 2025).
Like-named read-outs stand apart in the source and are kept apart here.

How the values were obtained:
[1] = various buffer solutions at various pH levels, octanol
[2] = aqueous titration with 20% ethanol as a co-solvent

| SMILES | distribution coefficient [1] | pKa [2] | solubility (unbuffered water and low pH buffers) | solubility (in acetone) | solubility (in acetonitrile) | solubility (in ethanol) | solubility (in ethyl acetate) | solubility (in n-hexane) | solubility (in water) |
| --- | --- | --- | --- | --- | --- | --- | --- | --- | --- |
| CCCCC[C@H](O)CC[C@@H]1[C@H]2Cc3cccc(OCC(=O)O)c3C[C@H]2C[C@H]1O [Treprostinil, 2-[[(1R,2R,3aS,9aS)-2-hydroxy-1-[(3S)-3-hydroxyoctyl]-2,3,3a,4,9,9a-hexahydro-1H-cyclopenta[g]naphthalen-5-yl]oxy]acetic acid] | distribution into octanol layers at all pH levels | 4.5 | poorly soluble |  |  |  |  |  |  |
| CCCCC[C@H](O)CC[C@@H]1[C@H]2Cc3cccc(OCC(=O)[O-])c3C[C@H]2C[C@H]1O.[Na+] [Treprostinil sodium] |  |  |  | very slightly soluble | practically insoluble | very soluble | practically insoluble | practically insoluble | very soluble |
